# Non-standard residues stand in square brackets, D forms with d. No end group written: not given here. pY = N[C@@H](Cc1ccc(OP(=O)(O)O)cc1)C(=O)O
# Tests used:
# [1] = test system: PI3K activity measured as Akt phosphorylation; assay: Akt phosphorylation (Western blot) after peptide transfection; type: cell-based, human; details: for inhibition of PI3K activity measured as inhibition level of Akt phosphorylation: MCF7 cells, peptide transfection at different doses (FIG. 12)
# Method: (§1) Peptide transfection. In order to inhibit the p85 and ErbB3 interaction, MCF7, BT474 and MDA-MB-453 cell lines have been transfected using 80, 100, and 180 μg, respectively, of the following phosphopeptides:
# (§2) Treatments and lmmunodecorations. […] Briefly the cells have been plated at 5×10^5 concentration in 60 mm plates. […] At the end of the treatment the cells have been lysed with RIPA buffer [150 mM NaCl, 1% NP-40, 0,5% sodium deoxycholate (DOC), 0.1% SDS, 50 mM TrisHCl (pH 8), 1 mM PMSF, 1 mM EGTA, 50 mM NaF, 50 mM Na3VO4 and protease inhibitors (Roche, Milano, IT)] in order to analyze the expression levels of phosphorylated and total ErbB-3, ErbB-2, ERK and HSP-70 proteins. In order to analyze the levels of Akt phosphorylation and expression, the cells have been lysed in NP-40 buffer [1% NP-40, 10% glycerol, 137 mM NaCl, 20 mM TrisHCl (pH 7.4), 50 mM NaF, 1 mM PMSF, 5 mM Na3VO4, protease inhibitors (Roche, Milano, IT)]. Cell lysates have been incubated on ice for 20 minutes and centrifuged at 14000 rpm for 20 minutes. RIPA buffer obtained cell extracts have been boiled for 5 minutes at 95° C., while NP40 buffer lysed samples have been boiled at 65° C. for 5 minutes. Samples have been subjected to SDS-PAGE and transferred on nitrocellulose filters (Bio-Rad, Milan, IT). Then the filters have been incubated with interest antibodies, washed and incubated with specific secondary horse radish peroxidase (HRP) conjugated antibodies. After thorough washing, nitrocellulose peroxidase activity has been detected by chemiluminescence (Lite-blot-Euroclone, Milano, IT)
# MAPK phosphorylation = assay: MAPK (ERK1/2) phosphorylation (Western blot) after peptide transfection; type: cell-based, human; details: MCF7, BT474 and MDA-MB-453 cells (FIG. 4A); Herceptin where combined
# Method: as §1
# as §2, with “Samples have been subjected to SDS-PAGE and transferred on nitrocellulose filters (Bio-Rad, Milan, IT). Then the filters have been incubated with interest antibodies, washed and incubated with specific secondary horse radish peroxidase (HRP) conjugated antibodies.” left out
# [2] = target: T1, HER3 binding to GST-N-SH2p85 fusion protein (Homo sapiens, UniProt P27986); assay: GST pull-down; details: lysates of BT474, MCF7 and MDA-MB-453 cells, in vitro (FIG. 2A, FIG. 3)
# T1 construct: containing SH2 domains in N-terminal portion of p85 sub-unit
# Method: GST pull-down. MCF-7, BT474 and MDA-MB-453 cell lines have been washed 2 times with cold PBS and extracted with lysis buffer [(50 mM Tris HCl (pH 7.4), 250 mM NaCl, 0,1% Triton X-100, 5 mM EDTA, 50 mM NaF, 1 mM PMSF, 5 mM Na3VO4 and 50 mmol/L of protease inhibitors (Roche, Milano, IT)]. After 20 minute ice-cold incubation, the lysates have been clarified by centrifugation at 14000 rpm for 20 minutes. The cellular extracts (1 mg sample) have been incubated for 4 hours at 4° C. in the presence of GST bound gluthatione-agarose beads or GST-p85 fusion protein (kindly supplied by doctor S. Giordano), in the presence or absence of 1257 phosphopeptide or scr peptide used as control. Then the interaction complexes have been washed six times with lysis buffer and subsequently beads eluted using Laemli Buffer 2× [(140 mM SDS, 432 mM Glycerol, 1.6 mM Bromophenol blue, 120 mM Tris HCl (pH 6.8), 8% β-mercaptoethanol)]. The proteins have been separated using 8% SDS-PAGE and transferred on nitrocellulose filter. The filter has been then immunodecorated with anti ErbB3 antibody.
# As in FIG. 2A is apparent that 1257 phosphopeptide effectively in vitro binds p85 sub-unit thus inhibiting HER3 receptor binding.
# p85 and HER3 interaction = target: T2, p85 and HER3 interaction (Homo sapiens, UniProt P27986); assay: Immunoprecipitation with anti-p85, blot anti-HER3, in transfected cells; type: cell-based; details: three cell lines, 48 hr after Lipofectamine transfection (FIG. 2B)
# T2 construct: Whole cell lysates have been imunoprecipitated with anti-p85 antibody; endogenous in cells; host or cells: MCF7, BT474, MDA-MB-453
# Excerpt: Immunoprecipitation. MCF7, BT474 and MDA-MB-453 cell lines have been plated at 5×10^5 concentration in 60 mm plates. On subsequent day cells have been transfected with 1257 phosphopeptide and contrrol phosphopeptide. […] Whole cell lysates have been imunoprecipitated with anti-p85 antibody (#06-496) in the presence of protein G (Pierce, Milan, IT). Whole proteins and immunocomplexes then have been subjected to 8% SDS-PAGE and transferred on nitrocellulose filter. The proteins have been detected by immunodecoration using anti-ErbB3 and anti-p110α antibodies.
# The peptide has been transfected using Lipofectamine in all three cell lines. […] This binding is required in order PI3K kinase to be activated.
# HER2 = HER2 expression level and ErbB-2 homodimer (Western blot) after peptide transfection; type: cell-based, human
# Method: as §2
# BT474 cells = assay: Soft agar anchorage-independent growth; type: cell-based, human; details: compared to parental or scr peptide transfected cells
# Method: (§3) Soft agar. […] Briefly cells (1×10^4) have been re-suspended in 5 ml of 0.3% agar in RPMI or DMEM supplemented with 10% FCS, and quickly stained on a solid layer of 1.2% agar in DMEM/RPMI. Cultures have been carried out for 4 weeks. Then colonies have been stained with viable colony specific neutral red solution (Sigma, Milan, IT), and then counted. Photographies have been taken using Leica DM IRE2 microscope and Leica FW4000 software (Leica Microsystems, Milan, IT).
# (§4) Then it has been attempted to understand whether the peptide is suitable to reduce the cell ability to grow under anchorage-independence conditions.
# MCF7 cells = assay: Soft agar anchorage-independent growth; type: cell-based, human; details: compared to parental or scr peptide transfected cells
# Method: as §3, §4
# BT474 xenograft = assay: Electroporation tumour therapy of BT474 xenografts; type: in vivo, SCID mice; details: Herceptin i.p. (FIG. 11A)
# Method: Xeno-grafts. In vivo tests have been carried out using 40 day old SCID female mice (Harlan Laboratories, Milan, IT). At day 0, animals have been totally anesthetized with intramuscular injection of 400 μg/animal (average weight 25 g) of Zoletil (Virbac) containing 0.12% Xylor (Xylazine), and transplanted subcutaneously (s.c.), in intrascapular mouse region with pellet of 17-h-extradiol (1.7 mg/sustained release pellet over 60 days, Innovative Research of America, Sarasota, Fla.). […] Tumour growth has been monitored two times weekly using calibration along two orthogonal axes: length (L) and depth (VV). The tumour volume (V) has been calculated using the formula V=L*(W2)/2.
# Electroporation tumour therapy. […] Therapy has been repeated once weekly, and tumour size monitored up to 70 days.
# T1 sequence (P27986 333-428 limits assumed): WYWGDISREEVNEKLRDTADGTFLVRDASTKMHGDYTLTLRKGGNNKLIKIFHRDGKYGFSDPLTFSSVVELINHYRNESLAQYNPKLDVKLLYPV
# T2 sequence (P27986 whole entry): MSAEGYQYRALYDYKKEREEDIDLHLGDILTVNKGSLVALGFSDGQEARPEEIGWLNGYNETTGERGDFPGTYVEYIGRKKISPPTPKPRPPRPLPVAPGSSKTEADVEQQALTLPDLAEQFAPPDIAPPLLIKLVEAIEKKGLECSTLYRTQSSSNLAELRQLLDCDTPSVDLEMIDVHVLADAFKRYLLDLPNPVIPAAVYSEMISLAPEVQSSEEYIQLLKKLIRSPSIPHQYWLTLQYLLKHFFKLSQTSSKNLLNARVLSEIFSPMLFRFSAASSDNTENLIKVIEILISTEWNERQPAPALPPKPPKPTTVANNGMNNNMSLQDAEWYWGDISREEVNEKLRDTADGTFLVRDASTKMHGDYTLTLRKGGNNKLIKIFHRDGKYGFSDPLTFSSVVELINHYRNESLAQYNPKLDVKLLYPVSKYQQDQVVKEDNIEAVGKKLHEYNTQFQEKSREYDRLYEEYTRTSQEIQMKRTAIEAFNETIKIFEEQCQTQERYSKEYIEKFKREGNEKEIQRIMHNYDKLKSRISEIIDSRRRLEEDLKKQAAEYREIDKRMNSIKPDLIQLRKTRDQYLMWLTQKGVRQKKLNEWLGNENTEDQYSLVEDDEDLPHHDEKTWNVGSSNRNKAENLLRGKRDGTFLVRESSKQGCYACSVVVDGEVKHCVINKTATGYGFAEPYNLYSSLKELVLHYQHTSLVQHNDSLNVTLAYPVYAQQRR
substance,measurement,setting,value
RDGGGPGGDpYAAMGACPA (RDGGGPGGD[pY]AAMGACPA; listed as Homo sapiens) [1257 phosphopeptide],phosphorylation of Akt,"[1]; MCF7, BT474 and MDA-MB-453 cells (FIG. 4A), Herceptin where combined",inhibition the phosphorylation of Akt
same,inhibition of PI3K activity measured as inhibition level of Akt phosphorylation,[1],remarkably inhibits Akt phosphorylation
same,inhibition of PI3K activity measured as inhibition level of Akt phosphorylation,[1]; listed as 1257 peptide,high efficiency
same,time after transfection for which Akt phosphorylation is inhibited,[1]; stability inside of cell (FIG. 5A),up to 6 days
same,MAPK phosphorylation,MAPK phosphorylation,inhibition of MAPK phosphorylation
same,inhibition of HER3 and p85 SH2 domain binding,[2],inhibits in specific way HER3 and p85 SH2 domain binding
same,inhibition of p85 and HER3 interaction,p85 and HER3 interaction,inhibits effectively p85 and HER3 interaction
same,total level of HER2,"HER2; after peptide treatment (FIG. 4A), poorly appreciable in MDA-MB-453",decrease
same,ErbB-2 homodimer levels,HER2; not reducing conditions (FIG. 5B),favours the formation of ErbB-2 homodimer
same,reduction of colony number,BT474 cells,up to 80%
same,reduction of colony number,MCF7 cells,up to 80%
same,tumour mass compared to not treated control,BT474 xenograft,strongly reduces the tumour mass

# Reference: patent US20130259929A1, “USE OF A PHOSPHOPEPTIDE ABLE TO BLOCK HER3/P85 INTERACTION FOR THE TREATMENT OF HER2 HYPER-EXPRESSING TUMOURS” (priority 2010, published 2013)
